In paper PMC8069799, “Alpha-Glucosidase Inhibitory Diterpenes from Euphorbia antiquorum Growing in Vietnam” (Molecules, 2021):
pIC50, pKi: −log10 of the molar value.

Tests used:
[1] = molecular target: Saccharomyces cerevisiae α-glucosidase (E.C 3.2.1.20); experiment: Alpha-glucosidase inhibition assay; type: biochemical; conditions: 0.2 U/mL enzyme, 5.0 mM pNPG, pH 6.9 sodium phosphate buffer, 37 °C, triplicate; read-out: Alpha-glucosidase inhibitory activity IC50
Procedure: The alpha-glucosidase (0.2 U/mL) and substrate (5.0 mM pNPG) were dissolved in 100 mM pH 6.9 sodium phosphate buffer. The inhibitor (50 µL) was preincubated with alpha-glucosidase at 37 °C for 20 min, and then the substrate (40 µL) was added to the reaction mixture. The enzymatic reaction was carried out at 37 °C for 20 min and stopped by adding 0.2 M Na2CO3 (130 μL). Enzymatic activity was quantified by measuring absorbance at 405 nm (CLARIOstar plus, BMG LABTECH, Ortenberg, Germany). All samples were analyzed in triplicate at five different concentrations around the IC50 values, and the mean values were retained. The inhibition percentage (%) was calculated by the following equation:Inhibition (%) = [1 − (Asample/Acontrol)] × 100.(1)

alpha-glucosidase = experiment: Inhibitory type assay of 3 on alpha-glucosidase (Lineweaver–Burk plots, secondary plots); type: biochemical, yeast
Procedure: In order to examine the inhibition mechanism of 3, their activity was measured at the different concentration of 4-nitrophenyl […] (pNPG).
The mechanisms of inhibition of alpha-glucosidase by 3 were determined by Lineweaver–Burk plots (Microsoft Excel 2010, Redmond, WA, USA), using methods similar to those reported in the literature. Enzyme inhibition due to various concentrations of the 3 were evaluated by monitoring the effects of different concentrations of the substrate. For Lineweaver–Burk double reciprocal plots 1/enzyme velocity (1/V) vs. 1/substrate concentration (1/[S]), the inhibition type was determined using various concentrations of pNPG (1 mM, 2 mM, and 4 mM) as a substrate in the presence of different concentrations of the test compound (0, 13.8, 27.7, and 55.5 µM). The experiments were carried out in three replicates. The mixtures were incubated at 37 °C and the optical density was measured at 405 nm every 1 min for 30 min with the Clariostar Labtech microplate reader (Ortenberg, Germany). Optimal concentrations of the tested compound were chosen based on the IC50 value. The inhibition constants were obtained graphically from secondary plots (Microsoft Excel 2010, Redmond, WA, USA).

| pIC50 [1] | inhibition type (alpha-glucosidase; Lineweaver–Burk plots, Vmax decreased while Km remained constant) | pKi (alpha-glucosidase; pNPG 1, 2, 4 mM, inhibitor 0, 13.8, 27.7, 55.5 µM, secondary plot of slope vs. inhibitor concentration, read-out: inhibition constant (Ki)) | Structure (SMILES) |
| --- | --- | --- | --- |
| 3.90 |  |  | CC1(C)C(O)CC(O)C2(C)C3CC4CCC3(CCC12)CC4(O)CO (single isomer, unassigned; ent-1) [Compound 1, ent-1α,3α,16β,17-tetrahydroxyatisane] |
| 4.16 | noncompetitive inhibitor | 4.18 | CC1(C)OC[C@@]2(C[C@]34CC[C@H]2C[C@H]3[C@]2(C)CCC(=O)C(C)(C)[C@H]2CC4)O1 [Compound 3, ent-atisane-3-oxo-16β,17-acetonide] |
| 3.81 |  |  | CC1(C)C(=O)CC[C@@]2(C)[C@H]1CC[C@@]13C[C@H](CC[C@@H]12)[C@@](O)(CO)C3 [Compound 6, calliterpenone] |

Second part, the compound before the results:

| Structure (SMILES) | pIC50 [1] | inhibition type (alpha-glucosidase; Lineweaver–Burk plots, Vmax decreased while Km remained constant) | pKi (alpha-glucosidase; pNPG 1, 2, 4 mM, inhibitor 0, 13.8, 27.7, 55.5 µM, secondary plot of slope vs. inhibitor concentration, read-out: inhibition constant (Ki)) |
| --- | --- | --- | --- |
| CCOC(=O)CC[C@]1(C)[C@@H](C(C)(C)O)CC[C@@]23CC[C@@H](C[C@H]21)[C@](O)(CO)C3 (single isomer, unassigned; ent-3) [Compound 2, ethyl ent-3,4-seco-4,16β,17-trihydroxyatisane-3-carboxylate] | 3.88 |  |  |
| CC(=O)O[C@H]1CC[C@@]2(C)C3C[C@@H]4CC[C@@]3(CC[C@@H]2C1(C)C)C[C@@]4(O)CO (single isomer, unassigned; ent-3) [Compound 4, ent-3α-acetoxy-16β,17-dihydroxyatisane] | 3.99 |  |  |
| CC(=O)OC1C(C)C(=O)C23CC(C)C(O)C2(C=C(C)C(O)C(O)C2C1C2(C)C)O3 (centres unmarked) [Compound 7, ingol 12-acetate] | 3.94 |  |  |
